Residue numbers refer to the chain shown, from its start.
What was measured:
wt amidase = settings: chelating agents likely remove the zinc ion; cited from earlier work
Excerpt: In order to determine whether amino acids in the vicinity of the zinc ion are required for enzymatic activity, residues H60, H177 and D179 were separately mutated to alanine. All three mutant proteins were expressed and purified to homogeneity. None of them has lytic activity in zymogram gels with heat-inactivated S. aureus cells, whereas the wild type (wt) protein is able to lyse cell walls efficiently (Figure 4A). Similar results were obtained with lysis assays using purified S. aureus PGN (Figure 4B). Our results therefore provide evidence for a critical role of the zinc ion and its surroun ...

AmiE = target: T1, AmiE (Staphylococcus epidermidis, UniProt O33635); experiment: Digestion assay with modified AmiE substrates (Mca substrate derivatives); assay type: biochemical; settings: 70 µM substrate, 7.2 µM AmiE, 37°C, 50 mM sodium phosphate buffer pH 7.2, 6 h; stopped with 1% TFA; RP-HPLC C-18, UV 214 nm
T1 construct: A DNA fragment coding for amino acids 303 to 516 of the atlE gene product; GST (N, cleaved yes); made in house; host or cells: Escherichia coli BL21 (DE3)
T1 sequence (O33635 303-516): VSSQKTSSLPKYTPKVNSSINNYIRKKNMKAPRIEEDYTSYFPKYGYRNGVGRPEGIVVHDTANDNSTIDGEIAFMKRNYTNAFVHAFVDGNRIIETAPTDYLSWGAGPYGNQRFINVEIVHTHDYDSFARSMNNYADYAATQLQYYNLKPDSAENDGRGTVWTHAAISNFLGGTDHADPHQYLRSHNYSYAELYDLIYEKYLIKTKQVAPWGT
Description: The five substrates, each at a concentration of 70 µM, were processed by 7.2 µM AmiE at 37°C in digestion buffer (50 mM sodium phosphate buffer, pH 7.2). After 1, 3 and 6 h, the reaction was stopped by adding trifluoroacetic acid to a final concentration of 1%. Decrease of the initial substrate and formation of the Mca product were analyzed by analytical RP-HPLC using a binary HPLC system (Shimadzu, Tokyo, Japan) with a UV detector, a Nucleosil C-18 column (5 µm particle size, 150×2 mm) from Dr Maisch GmbH (Tuebingen, Germany) and a two solvent system: (A) 0.055% (v/v) TFA in water and (B) 0.05% TFA in 80% acetonitrile in water. The substrate was well separated from the generated cleavage product Mca, and was quantified at 214 nm.

AmiE wt = target: T2, AmiE wt (Staphylococcus epidermidis, UniProt O33635); experiment: MTP digestion assay (cleavage of PGN-derived ligands), wt enzyme; assay type: biochemical; settings: 10 µg protein + 0.1 mg ligand in 10 µl 50 mM Tris/HCl pH 8.0, 150 mM NaCl; 72 h at 37°C; products analysed by HPLC and ESI-MS
T2 construct: A DNA fragment coding for amino acids 303 to 516 of the atlE gene product; GST (N, cleaved yes); made in house; host or cells: Escherichia coli BL21 (DE3)
T2 sequence (O33635 303-516): T1 sequence (O33635 303-516)
Description: (§1) To determine the minimal PGN sequence that can still be cleaved by AmiE, we performed cleavage assays with three PGN-derived compounds: MTP, N-acetylmuramyl-L-alanyl-D-iso-glutamine (MDP), and N-acetyl-D-glucosaminyl-(1,4)-N-acetylmuramyl-L-alanyl-D-iso-glutamine (GMDP). MDP and GDMP were purchased from Sigma and Calbiochem, respectively, whereas MTP was synthesized as described. All ligands were incubated with the wt protein for 72 h at 37°C, followed by analysis of products with HPLC and ESI mass spectrometry. […] The m/z profile of the H177A mutant is dominated by peaks at m/z 621 and 649 (Figure 5, right). The latter peak represents the MTP educt plus an unknown additional mass, which probably originates from the synthesis. Both peaks are replaced by peaks at m/z 346 and 374 in the profile for the wt protein (Figure 5, left). The first peak corresponds to the expected mass of the cleaved peptide stem while the second one is the digestion product of the compound with the higher mass. We conclude that cleavage by AmiE requires the presence of a third amino acid in the peptide stem. As the lysine is quite distant from the active site, it is most likely not required for the catalytic reaction itself but likely serves to anchor the ligand in the binding site. Similar cleavage results have previously been obtained for the catalytically active PGRP-L protein, which also requires MTP for cleavage.
For each assay, 10 µg of wt or mutant protein and 0.1 mg of the appropriate ligand were incubated in 10 µl gel filtration buffer (50 mM Tris/HCl pH 8.0, 150 mM NaCl). The reaction was stopped after 72 h by adding 100 µl acetonitrile with 0,05% (v/v) formic acid. The sample was then frozen at -20°C until used for ESI-MS.

AmiE H177A = target: T3, AmiE H177A (Staphylococcus epidermidis, UniProt O33635, H479A); experiment: MTP digestion assay, inactive mutant (negative control); assay type: biochemical; settings: 10 µg protein + 0.1 mg ligand in 10 µl 50 mM Tris/HCl pH 8.0, 150 mM NaCl; 72 h; ESI-MS
T3 construct: A DNA fragment coding for amino acids 303 to 516 of the atlE gene product; GST (N, cleaved yes); made in house; host or cells: Escherichia coli
T3 sequence (O33635 303-516 H479A): T1 sequence (O33635 303-516) with H177A
Description: as §1, with “Similar cleavage results have previously been obtained for the catalytically active PGRP-L protein, which also requires MTP for cleavage.” left out

Q: For O=C(O)CN(CCN(CC(=O)O)CC(=O)O)CC(=O)O [EDTA], which “effect of chelating agent on activity of the wt amidase” value (wt amidase) is on record?
A: loss of activity

Q: For c1cnc2c(c1)ccc1cccnc12 [phenanthroline], which “effect of chelating agent on activity of the wt amidase” value (wt amidase) is on record?
A: loss of activity

Q: Which “amount of substrate cleaved after 6 h” value (AmiE) does the source give for “Mca-Ala-D-iGln-Ala-D-Ala-Arg-OH [Ala-substrate]” here?
A: Approximately 10%

Q: For “Mca-Ala-D-iGln-Lys-D-Ala-Arg-OH [Lys-substrate]”, which “amount of substrate cleaved after 6 h” value (AmiE) is on record?
A: almost half

Q: For “N-acetyl-D-glucosaminyl-(1,4)-N-acetylmuramyl-L-alanyl-D-iso-glutamine [GMDP]”, which “cleavage of ligand by the wt enzyme” value (AmiE wt) is on record?
A: neither MDP nor GMDP are cleaved

Q: Which “cleavage of ligand by the wt enzyme” value (AmiE wt) does the source give for “N-acetylmuramyl-L-alanyl-D-iso-glutamine [MDP]” here?
A: neither MDP nor GMDP are cleaved

Q: Which “cleavage of ligand by the H177A mutant” value (AmiE H177A) does the source give for “N-acetylmuramyl-L-alanyl-D-iso-glutamyl-L-lysine [MTP]” here?
A: does not cleave

Q: And the “cleavage of ligand by the wt enzyme” value (AmiE wt)?
A: cleaved into two fragments
